Results reported in PubChem BioAssay (NCI).
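48-hour exposure; five concentrations; linearly interpolated endpoints. GI50 = concentration required for 50% inhibition of growth. TGI marks complete inhibition of growth.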

Experiments:
Assay in all cases: NCI tumour cell line growth inhibition, 48 h
OVCAR-4 ovarian = tested on: OVCAR-4 ovarian
MALME-3M melanoma = tested on: MALME-3M melanoma
HL-60(TB) leukemia = tested on: HL-60(TB) leukemia
CAKI-1 renal = tested on: CAKI-1 renal
LOX IMVI melanoma = tested on: LOX IMVI melanoma
OVCAR-8 ovarian = tested on: OVCAR-8 ovarian
U251 CNS = tested on: U251 CNS
SW-620 colon = tested on: SW-620 colon
SK-MEL-5 melanoma = tested on: SK-MEL-5 melanoma
MDA-MB-435 = tested on: MDA-MB-435
HCT-15 colon = tested on: HCT-15 colon
HOP-62 NSCLC = tested on: HOP-62 NSCLC
A549 NSCLC = tested on: A549 NSCLC
HT29 colon = tested on: HT29 colon
PC-3 prostate = tested on: PC-3 prostate
RPMI-8226 leukemia = tested on: RPMI-8226 leukemia
UACC-257 melanoma = tested on: UACC-257 melanoma
HCT-116 colon = tested on: HCT-116 colon
NCI-H23 lung = tested on: NCI-H23 lung
ACHN renal = tested on: ACHN renal
RXF 393 renal = tested on: RXF 393 renal
SK-MEL-2 melanoma = tested on: SK-MEL-2 melanoma
HOP-92 NSCLC = tested on: HOP-92 NSCLC
IGROV1 ovarian = tested on: IGROV1 ovarian
COLO 205 colon = tested on: COLO 205 colon
SK-OV-3 ovarian = tested on: SK-OV-3 ovarian
MDA-MB-468 breast = tested on: MDA-MB-468 breast
M14 melanoma = tested on: M14 melanoma
CCRF-CEM leukemia = tested on: CCRF-CEM leukemia
SR leukemia = tested on: SR leukemia
786-0 renal = tested on: 786-0 renal
UACC-62 melanoma = tested on: UACC-62 melanoma
SF-295 CNS = tested on: SF-295 CNS
OVCAR-3 ovarian = tested on: OVCAR-3 ovarian
EKVX NSCLC = tested on: EKVX NSCLC
NCI-H460 lung = tested on: NCI-H460 lung
SNB-19 CNS = tested on: SNB-19 CNS
NCI-H522 lung = tested on: NCI-H522 lung
SNB-75 CNS = tested on: SNB-75 CNS
SF-539 CNS = tested on: SF-539 CNS
T-47D breast = tested on: T-47D breast
K-562 leukemia = tested on: K-562 leukemia
OVCAR-5 ovarian = tested on: OVCAR-5 ovarian
BT-549 breast = tested on: BT-549 breast
KM12 colon = tested on: KM12 colon
A498 renal = tested on: A498 renal
SN12C renal = tested on: SN12C renal
UO-31 renal = tested on: UO-31 renal
MDA-MB-231 breast = tested on: MDA-MB-231 breast
HCC-2998 colon = tested on: HCC-2998 colon
NCI-H226 lung = tested on: NCI-H226 lung
NCI/ADR-RES ovarian = tested on: NCI/ADR-RES ovarian
DU-145 prostate = tested on: DU-145 prostate
TK-10 renal = tested on: TK-10 renal
SF-268 CNS = tested on: SF-268 CNS
SK-MEL-28 melanoma = tested on: SK-MEL-28 melanoma

## NS(=O)(=O)c1ccc(N=Nc2c(O)n(CC(=O)Nc3ccccc3)c3ccccc23)cc1
OVCAR-4 ovarian
  GI50: 0.93 µM
  TGI: 69.7 µM
MALME-3M melanoma
  GI50: 1.09 µM
  TGI: 5.15 µM
HL-60(TB) leukemia
  GI50: 0.443 µM
  TGI: > 100 µM
CAKI-1 renal
  GI50: 0.434 µM
  TGI: 2.36 µM
LOX IMVI melanoma
  GI50: 0.725 µM
  TGI: 11.3 µM
OVCAR-8 ovarian
  GI50: 0.646 µM
  TGI: 3.16 µM
U251 CNS
  GI50: 1.17 µM
  TGI: 3.88 µM
SW-620 colon
  GI50: 0.402 µM
  TGI: 2.26 µM
SK-MEL-5 melanoma
  GI50: 1 µM
  TGI: 5.5 µM
MDA-MB-435
  GI50: 0.635 µM
  TGI: 6.1 µM
HCT-15 colon
  GI50: 0.533 µM
  TGI: > 100 µM
HOP-62 NSCLC
  GI50: 1.8 µM
  TGI: 5.5 µM
A549 NSCLC
  GI50: 0.738 µM
  TGI: 4.18 µM
HT29 colon
  GI50: 0.749 µM
  TGI: 2.82 µM
PC-3 prostate
  GI50: 1.61 µM
  TGI: 10.9 µM
RPMI-8226 leukemia
  GI50: 1.13 µM
  TGI: > 100 µM
UACC-257 melanoma
  GI50: 2.02 µM
  TGI: 20.3 µM
HCT-116 colon
  GI50: 0.46 µM
  TGI: 2.58 µM
NCI-H23 lung
  GI50: 0.801 µM
  TGI: 3.46 µM
ACHN renal
  GI50: 0.606 µM
  TGI: 4.53 µM
RXF 393 renal
  GI50: 1.36 µM
  TGI: 5.06 µM
SK-MEL-2 melanoma
  GI50: 2.25 µM
  TGI: 6.9 µM
HOP-92 NSCLC
  GI50: 1.6 µM
  TGI: 6.56 µM
IGROV1 ovarian
  GI50: 2.79 µM
  TGI: 14.5 µM
COLO 205 colon
  GI50: 1.24 µM
  TGI: 6.74 µM
SK-OV-3 ovarian
  GI50: 3.11 µM
  TGI: 10.2 µM
MDA-MB-468 breast
  GI50: 0.768 µM
  TGI: 4.65 µM
M14 melanoma
  GI50: 1.14 µM
  TGI: > 100 µM
CCRF-CEM leukemia
  GI50: 0.776 µM
  TGI: > 100 µM
SR leukemia
  GI50: 0.194 µM
  TGI: > 100 µM
786-0 renal
  GI50: 1.29 µM
  TGI: 6.54 µM
UACC-62 melanoma
  GI50: 0.52 µM
  TGI: 2.81 µM
SF-295 CNS
  GI50: 1.23 µM
  TGI: 5.16 µM
OVCAR-3 ovarian
  GI50: 0.873 µM
  TGI: 16 µM
EKVX NSCLC
  GI50: 3.35 µM
  TGI: 39.3 µM
NCI-H460 lung
  GI50: 0.544 µM
  TGI: 3.07 µM
SNB-19 CNS
  GI50: 1.67 µM
  TGI: 15.1 µM
NCI-H522 lung
  GI50: 0.589 µM
  TGI: 3.8 µM
SNB-75 CNS
  GI50: 1.94 µM
  TGI: 8.22 µM
SF-539 CNS
  GI50: 0.538 µM
  TGI: 2.03 µM
T-47D breast
  GI50: 1.89 µM
  TGI: 21.4 µM
K-562 leukemia
  GI50: 0.895 µM
  TGI: > 100 µM
OVCAR-5 ovarian
  GI50: 3.52 µM
  TGI: 26.1 µM
BT-549 breast
  GI50: 2.03 µM
  TGI: 7.73 µM
KM12 colon
  GI50: 1.03 µM
  TGI: 22.5 µM
A498 renal
  GI50: 1.29 µM
  TGI: 5.39 µM
SN12C renal
  GI50: 1.14 µM
  TGI: 6.05 µM
UO-31 renal
  GI50: 0.895 µM
  TGI: 6.95 µM
MDA-MB-231 breast
  GI50: 1.4 µM
  TGI: 3.92 µM
HCC-2998 colon
  GI50: 2.2 µM
  TGI: 8.56 µM
NCI-H226 lung
  GI50: 1.4 µM
  TGI: 4.75 µM
NCI/ADR-RES ovarian
  GI50: > 100 µM
  TGI: > 100 µM
DU-145 prostate
  GI50: 0.794 µM
  TGI: 48.3 µM
TK-10 renal
  GI50: 2.64 µM
  TGI: 25.8 µM
SF-268 CNS
  GI50: 3.59 µM
  TGI: > 100 µM
SK-MEL-28 melanoma
  GI50: 0.932 µM
  TGI: 6.06 µM
